Laboratory results reported in paper PMC12081029, “Structural, Spectroscopic, and Docking Analysis of N,O‐Donor Ligand Metal Complex Nanoparticles With Hypolipidemic Effects via Lipoprotein Lipase Activation in High‐Fat Diet Mice” (Chemistry & Biodiversity, 2024).
Several values for one entry are separate records, joined by “and”; a condition that tells them apart may be missing. Equal entries are not always repeated. Structures can show the parent of a compound that is named as a salt. Where two headings read alike, the source gives them in different places.

Key:
Aspergillus terreus [1] = assay: Agar diffusion, inhibition zone (ZOI) and activity index; settings: for ZOI: 10^−3 M in DMF, 5 mm holes, 7 days at 30°C; for AI: ZOI of compound / ZOI of standard (colitrimazole) × 100
Aspergillus niger [2] = assay: as above; settings: for ZOI: 10^−3 M in DMF, 5 mm holes, 7 days at 30°C
Staphylococcus aureus [3] = assay: MIC / MBC determination
[4] = Serum liver function enzymes in high-fat diet mice; format: in vivo; settings: HFD C57BL/6 mice, 4 mg kg^−1 body weight, 3 months, mean ± SD
Description: (§1) This study employed 8‐week‐old male C57BL/6 mice of matched weight (around 20–25 g) from an inbred “genetically identical” strain. The mice were purchased from the National Research Center's Animal House. Then, they were subdivided into five groups, each group containing eight mice; four groups were treated with CETZ.2HCl (antihistamine drug) and its metal complexes, whereas one group was left untreated and classified as a control group. Animals were housed in modular plastic veterinary cages at air‐conditioned room, under pathogen‐free conditions. Mice were fed HFD, which consisted of carbs 42.0%, fat 23.0%, protein 17.0%, fiber 3.0%, minerals 5.0%, and moisture 10.0% for 3 months, together with administration of either CETZ.2HCl or its metal complexes (4 mg kg ^−1 body weight) in DMF [37]. Experiments were performed in accordance with the regulations of the Animal Care and Use Committee of the College of Veterinary Medicine, Mansoura University (MU‐ACUC), Egypt; MU‐ACUC (PHARM.R.24.02.30), complied with “Guide for the Care and Use of Laboratory Animals” (National Research Council publication 8th ed., USA, 2011).
(§2) Specimens of blood were gathered from the retro‐orbital sinus, under halothane (1.5 percent v/v halothane in oxygen) anesthesia via inhalation. The collected blood was allowed to clot, by centrifugation at 1600 rpm for 20 min, to obtain serum. Isolated sera were maintained at −80°C until tests of liver function in addition to lipid profiles were performed. For estimation of L. lipase activity, fluorometric L. lipase activity assay kit was utilized following the manufacturer's protocol (Cat. No. STA‐610, Cell BIOLABS INC., San Diego, USA). Serum T. chol. LDL, HDL, TG, ALT (alanine aminotransferase), AST (aspartate aminotransferase), and ALP (alkaline phosphatase) were examined with Roche kits using COBAS Integra 400 and COBAS Integra‐400 plus (Roche Diagnostics Limited, Switzerland).

[5] = tested on: lipoprotein lipase (L. lipase); assay: Serum L. lipase activity in high-fat diet mice (fluorometric kit); format: in vivo; settings: HFD C57BL/6 mice; for L. lipase (serum enzyme activity): 4 mg kg^−1 body weight in DMF, 3 months, mean ± SD; for mean L. lipase activity: rounded, 4 mg kg^−1 body weight
Description: as §1, §2

Aspergillus terreus [6] = assay: MIC determination
Bacillus subtilis [7] = assay: Agar diffusion, inhibition zone (ZOI) and activity index; settings: for ZOI: 10^−3 M in DMF, 5 mm holes, 20 h at 37°C
Salmonella typhi [8] = assay: as above; format: cell-based; settings: for ZOI: 10^−3 M in DMF, 5 mm holes, 20 h at 37°C
Escherichia coli [9] = assay: as above; settings: for ZOI: 10^−3 M in DMF, 5 mm holes, 20 h at 37°C
Escherichia coli [10] = assay: MIC / MBC determination
Bacillus subtilis [11] = assay: MIC / MBC determination
Aspergillus niger [12] = assay: MIC determination
[13] = Serum lipid profile in high-fat diet mice; format: in vivo; settings: HFD C57BL/6 mice, 4 mg kg^−1 body weight, 3 months, mean ± SD
Description: as §1, §2

Salmonella typhi [14] = assay: MIC / MBC determination; format: cell-based
Staphylococcus aureus [15] = assay: Agar diffusion, inhibition zone (ZOI) and activity index; settings: for ZOI / AI: Staphylococcus aureus; for ZOI: 10^−3 M in DMF, 5 mm holes, 20 h at 37°C; for AI: ZOI of compound / ZOI of standard (ampicillin) × 100
Staphylococcus aureus [16] = settings: cited from earlier work; for Staphylococcus aureus (inhibition zone): in mm
Escherichia coli [17] = settings: cited from earlier work; for Escherichia coli (inhibition zone): in mm
Bacillus subtilis [18] = settings: cited from earlier work; for Bacillus subtillis (inhibition zone): in mm
[19] = Bacillus subtilis, ZOI of compound / ZOI of standard (ampicillin) × 100
[20] = Salmonella typhi, ZOI of compound / ZOI of standard (gentamicin) × 100
[21] = Escherichia coli, ZOI of compound / ZOI of standard (gentamicin) × 100
[22] = Table 9, preceding research ref [9]
[23] = Table 9, preceding research ref [11]
[24] = Table 9, preceding research ref [7]

| Molecule | ZOI (Aspergillus terreus [1]) | AI (Aspergillus terreus [1]) | ALP [4] | ALT [4] | AST [4] | L. lipase (serum enzyme activity) [5] | mean L. lipase activity [5] | MIC (Aspergillus terreus [6]) | ZOI (Bacillus subtilis [7]; Bacillus subtilis) | AI (Bacillus subtilis [7]; [19]) | ZOI (Salmonella typhi [8]; Salmonella typhi) | AI (Salmonella typhi [8]; [20]) | ZOI (Escherichia coli [9]; Escherichia coli) | AI (Escherichia coli [9]; [21]) | MBC (Escherichia coli [10]) | MIC (Escherichia coli [10]) | MIC (Bacillus subtilis [11]) | HDL [13] | LDL [13] | Total Chol. [13] | further results |
| --- | --- | --- | --- | --- | --- | --- | --- | --- | --- | --- | --- | --- | --- | --- | --- | --- | --- | --- | --- | --- | --- |
| O.O.O=C([O-])COCCN1CCN(C(c2ccccc2)c2ccc(Cl)cc2)CC1.O=[N+]([O-])[O-].[Cu+2].c1cnc2c(c1)ccc1cccnc12 (stereo not drawn) [complex (1), [Cu(CETZ)(Phen)(H2O)2(NO3)]] | 10.5^NS ±1.06 mm | 60.0% | 88 ± 12.64 U L^−1 | 228.63 ± 50.57 U L^−1 | 274.63 ± 36.40^NS U L^−1 | 127.88 U/L | 127.9 U L^−1 | 0.075 µg/mL and 0.075 ± 0.005 µg/mL | 23.3 ^+ ^2 ± 0.66 mm | 82.04% | 30.0 ^+ ^3 ±0.10 mm | 144.9% | 32.5 ^+ ^3 ±0.30 mm | 166.6% | 0.15 0.02 µg mL^−1 | 0.1 ± 0.006 µg/mL | 0.050 ± 0.007 µg/mL | 80.75 ± 8.26 mg/dL | 60.5 ± 5.78 mg/dL | 138.88 ± 10.92 mg/dL | ZOI (Aspergillus niger [2]; Aspergillus niger): 13.1^NS ±0.38 mm; AI (Aspergillus niger [2]; Aspergillus niger, ZOI of compound / ZOI of standard (colitrimazole) × 100): 66.16%; AI (Aspergillus niger [2]; Table 9, Aspergillus niger, this work): 88.89; Aspergillus niger (inhibition zone) (Aspergillus niger [2]; Table 9, this work): 13.1^NS ± 0.38; MBC (Staphylococcus aureus [3]): 0.086 µg/mL and 0.086 ± 0.004 µg/mL; MIC (Staphylococcus aureus [3]): 0.075 µg/mL and 0.075 ± 0.03 µg/mL; L. lipase (serum enzyme activity) ([5]; listed as Cu-CETZ Complex): 127.88±11.72 U/L; AI (Bacillus subtilis [7]; Table 9, Bacillus subtillis, this work): 55.3; Bacillus subtillis (inhibition zone) (Bacillus subtilis [7]; Table 9, this work): 23.3 ^+ ^2 ± 0.66; AI (Salmonella typhi [8]; Table 9, Salmonella typhi, this work): 59.9; Salmonella typhi (inhibition zone) (Salmonella typhi [8]; Table 9, this work): 30.0 ^+ ^3 ± 0.10; AI (Escherichia coli [9]; Table 9, Escherichia coli, this work): 113.3; Escherichia coli (inhibition zone) (Escherichia coli [9]; Table 9, this work): 32.5 ^+ ^3 ± 0.30; MIC (Aspergillus niger [12]): 0.050 µg/mL and 0.050 ± 0.02 µg/mL; Trig [13]: 77.25 ± 9.3 mg/dL; MBC (Salmonella typhi [14]; Salmonella typhi): 0.081 ± 0.01 µg/mL; MIC (Salmonella typhi [14]; Salmonella typhi): 0.075 µg/mL and 0.075 ± 0.006 µg/mL; ZOI (Staphylococcus aureus [15]): 17.3 ^+ ^2 ±0.33 mm; AI (Staphylococcus aureus [15]): 76.2%; Staphylococcus aureus (inhibition zone) (Staphylococcus aureus [15]; Table 9, this work): 17.3 ^+ ^2 ± 0.33 |
| O.O.O.O=C([O-])COCCN1CCN(C(c2ccccc2)c2ccc(Cl)cc2)CC1.O=C([O-])COCCN1CCN(C(c2ccccc2)c2ccc(Cl)cc2)CC1.[Cu+2] (stereo not drawn) [[Cu(CETZ)2(H2O)2].H2O] |  |  |  |  |  |  |  |  |  |  |  |  |  |  |  |  |  |  |  |  | Staphylococcus aureus (inhibition zone) (Staphylococcus aureus [16]; [22]): 15.21 ± 0.46; Escherichia coli (inhibition zone) (Escherichia coli [17]; [22]): 13.43 ± 0.39; Bacillus subtillis (inhibition zone) (Bacillus subtilis [18]; [22]): 18.31 ± 0.55 |
| O.c1cnc2c(c1)ccc1cccnc12 [Phen.H2O, 1,10‐phenanthroline monohydrate] |  |  |  |  |  |  |  |  | 1.1 ± 0.16 mm | 3.87% |  |  |  |  |  |  | 0.025 µg/mL and 0.025 ± 0.03 µg/mL |  |  |  | MBC (Bacillus subtilis [11]): 0.032 µg/mL |
| O=C(O)COCCN1CCN(C(c2ccccc2)c2ccc(Cl)cc2)CC1 (racemic) [CETZ.2HCl, (RS)‐2‐[2‐[4‐[(4‐chlorophenyl)phenylmethyl]piperazine‐L‐yl]‐ethoxy]acetic acid, dihydrochloride, reference compound] | 10.3 ±0.27 mm | 58.9% | 90.5 ± 16.79 U L^−1 | 245.63 ± 43.99 U L^−1 | 345.5 ± 57.73 U L^−1 | 104.88± 26.5 U/L and 104.88 U/L | 104.9 U L^−1 | 0.025 µg/mL and 0.025 ± 0.01 µg/mL | 12.1 ± 0.15 mm | 42.6% | 7.7 ±0.58 mm | 37.2% | 8.5 ±0.50 mm | 43.6% | 0.091 µg/mL | 0.075 ± 0.01 µg/mL | 0.05 µg/mL | 85.25 ± 6.23 mg/dL | 93.25 ± 8.15 mg/dL | 230.38 mg/dL | ZOI (Aspergillus niger [2]; Aspergillus niger): 12.5 ±0.36 mm; MBC (Staphylococcus aureus [3]): 0.049 µg/mL and 0.049 ± 0.01 µg/mL; MIC (Staphylococcus aureus [3]): 0.025 µg/mL and 0.025 ± 0.02 µg/mL; MIC (Aspergillus niger [12]): 0.025 µg/mL and 0.025 ± 0.01 µg/mL; Trig [13]: 80.5 ± 10.18 mg/dL; MBC (Salmonella typhi [14]; Salmonella enterica, TYPHI): 0.037 ± 0.01 µg/mL; ZOI (Staphylococcus aureus [15]): 9.4 ± 0.02 mm; AI (Staphylococcus aureus [15]): 41.4% |
| [Cu(AMBI)(CETZ)(NO3)(H2O)2] |  |  |  |  |  |  |  |  |  |  |  |  |  |  |  |  |  |  |  |  | AI (Staphylococcus aureus [16]; Table 9, Staphylococcus aureus ref [11]): 96.72; Staphylococcus aureus (inhibition zone) (Staphylococcus aureus [16]; [23]): 26.5 ± 0.6; AI (Escherichia coli [17]; Table 9, Escherichia coli ref [11]): 95.10; Escherichia coli (inhibition zone) (Escherichia coli [17]; [23]): 21.3 ± 0.4; AI (Bacillus subtilis [18]; Table 9, Bacillus subtillis ref [11]): 89.2; Bacillus subtillis (inhibition zone) (Bacillus subtilis [18]; [23]): 28.9 ± 0.3 |
| CC(N)C(=O)[O-].O.O=C([O-])COCCN1CCN(C(c2ccccc2)c2ccc(Cl)cc2)CC1.[Cu+2] (stereo not drawn) [[Cu(CETZ)(Ala)(H2O)]] |  |  |  |  |  |  |  |  |  |  |  |  |  |  |  |  |  |  |  |  | AI (Staphylococcus aureus [16]; Table 9, Staphylococcus aureus ref [7]): 56.93; Staphylococcus aureus (inhibition zone) (Staphylococcus aureus [16]; [24]): 15.6 ± 0.4; AI (Escherichia coli [17]; Table 9, Escherichia coli ref [7]): 52.91; Escherichia coli (inhibition zone) (Escherichia coli [17]; [24]): 11.8 ± 0.5; AI (Bacillus subtilis [18]; Table 9, Bacillus subtillis ref [7]): 42.9; Bacillus subtillis (inhibition zone) (Bacillus subtilis [18]; [24]): 13.9 ± 0.3 |
| CC(=O)[O-].O.O.O=C([O-])COCCN1CCN(C(c2ccccc2)c2ccc(Cl)cc2)CC1.[Cd+2].c1cnc2c(c1)ccc1cccnc12 (stereo not drawn) [complex (3), [Cd(CETZ)(Phen)(H2O)2(CH3COO)]] | 14.7 ^+ ^1 ±0.55 mm | 84.0% | 123.63 ± 11.45 U L^−1 | 283.75 ± 23.49 U L^−1 | 374.88 ± 36.33 U L^−1 | 52.38 U/L | 52.4 U L^−1 | 0.100 µg/mL and 0.1 ± 0.01 µg/mL | 32.0 ^+ ^3 ±0.68 mm | 112.68% | 19.5 ^+ ^2 ±0.85 mm | 94.2% | 28.5 ^+ ^2 ±0.83 mm | 146.1% | 0.23 ± 0.053 µg/mL | 0.1 ± 0.02 µg/mL | 0.075 ± 0.006 µg/mL | 44.63 ± 12.92 mg/dL | 89.25 ± 9.45 mg/dL | 283.75 mg/dL | L. lipase (serum enzyme activity) ([5]; listed as Cd-CETZ Complex): 52.38±9.6 U/L; Trig [13]: 188.75 mg/dL; MBC (Salmonella typhi [14]; Salmonella typhi): 0.066 ± 0.014 µg/mL; MIC (Salmonella typhi [14]; Salmonella typhi): 0.050 µg/mL and 0.050 ± 0.01 µg/mL |
